Where a SMILES comes first, the peptide text is derived from it.
Assay: Planar bilayer conductance (PBC) studies
Assay type: biochemical
Conditions: +100 or –100 mV, 50 s sweeps, up to 2 h, final concentration 8.3 µM, 20 mM MOPS, 100 mM NaCl or KCl, pH 7.4
Method: The observation of discrete conductance events can indicate channel formation and provide information on the nature of these channels.
PBC experiments were performed in a custom-built cell, with either 2 or Cu(II)[2]Cl2 (5–10 μL of a 1 mM solution in MeOH) added to the ground well. Characterisation sweeps were continued for 2 h, or until substantial channel-forming activity was observed. Single channel experiments were conducted under an applied potential of +100 or –100 mV in 50 s sweeps. […] Large current levels and reproducible well-defined quantized steps from 0.5 to 5 ms in duration (similar to the “flicker” behaviour described by Chui and Fyles[42]) were measured (Fig. 6). […] This could imply [Cu(II)[2]Cl]^+ cations[44] are involved in the channel-forming species. Channel events have multilevel conductances, both at +100 mV (∼0.08 nS, ∼0.14 nS) and at –100 mV potentials (∼0.08 nS, ∼0.15 nS).
The blue product from the addition of CuCl to 2 was also assessed using PBC experiments. […] In addition, much longer lived “square topped” openings could also be observed (Fig. 6b). These very regular well-defined quantized current steps were open for up to 20 ms at +100 mV, with multiple stepwise increases in conductance with ∼0.18 nS increments.[46] […]

For `CC(C)(NC(=O)C(C)(C)NC(=O)C(C)(C)NC(=O)C(C)(C)NC(=O)C(C)(C)n1cc(CN(Cc2ccccn2)Cc2ccccn2)nn1)C(=O)NC(C)(C)C(=O)NC(C)(C)C(=O)NC(C)(C)C(=O)OCC[Si](C)(C)C` [foldamer 2] (HELM PEPTIDE1{[CC(C)(C(=O)[*:2])n1cc(CN(Cc2ccccn2)Cc2ccccn2)nn1].[Aib].[Aib].[Aib].[Aib].[Aib].[Aib].[Aib].[C[Si](C)(C)CCO[*:1]]}$$$$V2.0), the “ion channel behaviour in PBC” value was “did not display any ion channel behaviour”.

— publication PMC7481839, “Switchable foldamer ion channels with antibacterial activity” (Chemical Science, 2020)
